The source of these data is patent US20260265538A1, “Aqueous Industrial Product Stabilized Against Microbial Contamination” (Thor GmbH, priority 2023, published 2026).

In assay [1] the test system is Bacteria mixture 1 (Pseudomonas genus). Nature of the assay: Single inoculation of paint with bacteria mixture 1, live bacteria count (CFU/g) over 28 days (example 1). The class given is cell-based. To be noted: for Colony forming units (CFU)/g of paint after days [d]: Table 1, Paint 1. From the text:
Paints 1 to 3 were mixed and homogenized with various concentrations of the guanidinium salts to be tested.
The batches obtained of the paint thus prepared were inoculated repeatedly with a mixture of different wild-type bacterial strains that are of practical relevance with regard to contamination. These bacteria had previously been isolated from commercial emulsion paints containing conventional preservatives (bacteria mixture 1, Pseudomonas genus), which are microbially contaminated in practice, and commercial so-called preservative-free alkaline emulsion paints (bacteria mixture 2, alkaliphilic bacteria of the Nesterenkonia & Alkalibacterium genus), which are microbially contaminated in practice.
• Pseudomonas spp. (Pseudomonas oleovorans group) DSM 33933 • Pseudomonas aeruginosa DSM 33935 • Pseudomonas oleovorans DSM 33936 • Pseudomonas putida DSM 33937 • Pseudomonas aeruginosa DSM 33938
The inoculum was added to the respective sample in each inoculation at 2% (v/w) as a fresh cell suspension in a physiological saline solution (0.9% NaCl). The cell count of the added inoculum in example 1 was 10^5/ml, in examples 2 to 5 10^9/ml, and in example 6 10^6/ml, each in equal portions consisting of the individual bacterial strains. The cell suspension was produced by growing the individual bacteria at 30° C. for 24 h in liquid culture on a shaker. The medium used to grow the bacteria from bacteria mixture 1 was Müller-Hinton liquid medium. Bacteria from bacteria mixture 2 were grown in Müller-Hinton liquid medium that had been adjusted to pH 9.5-9.7 with an alkaline buffer solution beforehand. After growing, the individual liquid cultures were centrifuged, and the cells were resuspended in physiological saline solution. In order to adjust the mixture to the desired cell count, the individual bacteria suspensions, if necessary, were diluted accordingly before being combined with saline solution. The cell count of the inoculum was determined in each case by chamber counting.
In example 1, the samples were inoculated once with a bacteria suspension (bacteria mixture 1) with a cell count of 10^5/ml (2% v/w) and the growth thereof was monitored by determining the live bacteria count per g of paint (colony-forming units, CFU/g) in the samples over 28 days. The CFU/g was determined each time by taking an aliquot (1 g) from the previously homogenized sample and running a serial decadic dilution series in physiological saline solution (0.9% NaCl) by streaking on tryptic soy agar, followed by incubation of the agar plates at 30° C. for 48 h.
Inoculation 2% (w/v) with Bacteria Mixture 1, 10^5 CFU/ml

For another assay, the system named is Bacteria mixture 3. Nature of the assay: Repetitive stress test of calcium carbonate slurry with bacteria mixture 3, semiquantitative evaluation (example 6). It is filed as cell-based. The settings on record: table 6; slurry having a pH of pH 9.4, addition of 0.075% by weight. The method, then: The calcium carbonate slurry was stored at 60° C. for 3 days prior to addition of the guanidinium salts for heat sterilization. The slurry thus treated was then admixed and homogenized with different concentrations of guanidine salts. The slurry prepared in this way was inoculated repeatedly with bacteria strains of practical relevance (bacteria mixture 3).
• Alcaligenes faecalis NCIMB 13145 • Aeromonas hydrophila DSM 6173 • Escherichia coli DSM 13631 • Burkholderia cepacia DSM 9241 • Staphylococcus aureus DSM 799 • Pseudomonas aeruginosa DSM 50071 • Pseudomonas putida DSM 13624
The inoculum was added to the respective sample in each inoculation at 2% (v/w) as a fresh cell suspension in a physiological saline solution (0.9% NaCl). […] The cell count of the inoculum was determined in each case by chamber counting.
In examples 2 to 6, what is called a repetitive stress test with bacteria was conducted by inoculating the samples at particular time intervals repeatedly with a bacteria suspension having a cell count of 10^9/ml (2% v/w) and monitoring the evolution of the bacteria by a semiquantitative evaluation method. After each inoculation, the samples were incubated at 30° C. for 6 days (bacteria mixture 1 and 3) or 7 and 14 days (bacteria mixture 2), and after these periods bacterial infestation was evaluated semiquantitatively in each case. […]

Bounds are passed on as bounds.

In the case of `N=C(N)N.N=C(N)N.O=C(O)O` [guanidine carbonate], the “Colony forming units (CFU)/g of paint after days [d]” value (shortened to “Colony forming units (CFU)/g”) in assay [1] (+0.01% guanidine carbonate (67 ppm guanidine), pH 8.1, 0 d) was 1.2 × 10^3 CFU/g; in assay [1] (+0.01% guanidine carbonate (67 ppm guanidine), pH 8.1, 2 d), 3.2 × 10^3 CFU/g; in assay [1] (+0.01% guanidine carbonate (67 ppm guanidine), pH 8.1, 5 d), 3.0 × 10^5 CFU/g; in assay [1] (+0.01% guanidine carbonate (67 ppm guanidine), pH 8.1, 28 d) it was 2.8 × 10^6 CFU/g; in assay [1] (+0.025% guanidine carbonate (164 ppm guanidine), pH 8.3, 0 d) it was 1.2 × 10^3 CFU/g; in assay [1] (+0.025% guanidine carbonate (164 ppm guanidine), pH 8.3, 2 d), 1.1 × 10^3 CFU/g. The “Colony forming units (CFU)/g” value is given as 1.0 × 10^5 CFU/g in assay [1] (+0.025% guanidine carbonate (164 ppm guanidine), pH 8.3, 5 d); 2.3 × 10^6 CFU/g in assay [1] (+0.025% guanidine carbonate (164 ppm guanidine), pH 8.3, 28 d); 9.0 × 10^2 CFU/g in assay [1] (+0.05% guanidine carbonate (328 ppm guanidine), pH 8.5, 0 d); <5 CFU/g in assay [1] (+0.05% guanidine carbonate (328 ppm guanidine), pH 8.5, 2 d); <5 CFU/g in assay [1] (+0.05% guanidine carbonate (328 ppm guanidine), pH 8.5, 5 d); <5 CFU/g in assay [1] (+0.05% guanidine carbonate (328 ppm guanidine), pH 8.5, 28 d). In addition, the “Colony forming units (CFU)/g” value in assay [1] (+0.075% guanidine carbonate (492 ppm guanidine), pH 8.7, 0 d) is given as 1.1 × 10^3 CFU/g; in assay [1] (+0.075% guanidine carbonate (492 ppm guanidine), pH 8.7, 2 d), <5 CFU/g; in assay [1] (+0.075% guanidine carbonate (492 ppm guanidine), pH 8.7, 5 d) it was <5 CFU/g; in assay [1] (+0.075% guanidine carbonate (492 ppm guanidine), pH 8.7, 28 d) it was <5 CFU/g; in assay [1] (+0.1% guanidine carbonate (656 ppm guanidine), pH 9.0, 0 d), 1.2 × 10^3 CFU/g; in assay [1] (+0.1% guanidine carbonate (656 ppm guanidine), pH 9.0, 2 d), <5 CFU/g. Besides, the “Colony forming units (CFU)/g” value in assay [1] (+0.1% guanidine carbonate (656 ppm guanidine), pH 9.0, 5 d) is recorded as <5 CFU/g; in assay [1] (+0.1% guanidine carbonate (656 ppm guanidine), pH 9.0, 28 d) it was <5 CFU/g. The “Stabilization of the paint against microbial infestation” value in assay [1] (table 1, addition of 0.05% by weight to a paint having a pH of greater than or equal to pH 8.5) is “distinct stabilization”. Moreover, the “Stabilization of the slurry against microbial infestation” value in the assay on Bacteria mixture 3 was “distinct stabilization”.
